# From patent US8329743B2, “Compositions and its use in treating obesity or inducing weight loss” (Sami Labs Limited, priority 2011, dated 2012)
# Test system: 3T3-L1 mouse adipocyte cells
# Experiment: Adipogenesis inhibition, Oil Red-O staining of adipocytes
# Format: cell-based
# Settings: Table 1, 3T3-L1 mouse adipocytes, OD 492 nm, read-out: Adipogenesis inhibitory activity (IC50)
# From the text: Adipogenesis, or the development of fat cells from preadipocytes, has been one of the most intensely studied models for obesity. A fat cell develops as internally produced lipid droplets coalesce into a single large mass. The in vitro adipogenesis inhibitory model can recapitulate most of the critical aspects of fat cell formation in vivo.
# A common assay to measure adipocyte differentiation in cell culture is with the dye Oil Red-O, which is a lipid-soluble red dye. Since terminal differentiation of adipocytes is accompanied by the accumulation of great amounts of lipids in large cytoplasmic vesicles, a strong, bright, staining of the cytoplasm with this dye is a reliable indicator of adipocyte differentiation.
# 3T3-L1 mouse adipocyte cells are seeded at a density of 5000 cell/200 μl of adipocyte induction medium in a 96 well plate. After 48 hrs, sample is added. After 72 hrs, the medium is changed to adipocyte progression medium along with the sample. The medium is similarly changed after another 48 hours. The plates are washed gently after 48 hrs with 100 μl of PBS. […] The OD reading is taken at 492 nm in microplate reader.
# The results are expressed as IC50 values using Graphpad prism software. The percentage of inhibition of adipogenesis is calculated as follows,
# [formula] Where C—absorbance due to adipogenesis in untreated cells • T—absorbance due to adipogenesis in sample treated cells
row,SMILES,IC50
1,C=C(C)[C@@H](CC=C(C)C)C[C@@]12C[C@@H](CC=C(C)C)C(C)(C)[C@@](CC=C(C)C)(C(=O)C(C(=O)c3ccc(O)c(O)c3)=C1O)C2=O [Garcinol],0.2 µg/mL
2,"COc1cc(C=Cc2ccc(O)cc2)cc(OC)c1 [Pterostilbene, 3,5-dimethoxy-4′-hydroxystilbene]",13.3 µg/mL
